According to paper PMC6017873 (Molecules : A Journal of Synthetic Chemistry and Natural …, 2018):
Several values for one entry are separate records, joined by “and”; a condition that tells them apart may be missing. Equal entries are not always repeated.

How the values were obtained:
SIRT2 = molecular target: T1, SIRT2 (Homo sapiens, UniProt Q8IXJ6); experiment: In vitro SIRT2 activity assay; conditions: IC50 SIRT2, mean ± SD of three independent experiments
T1 sequence (Q8IXJ6 1-389): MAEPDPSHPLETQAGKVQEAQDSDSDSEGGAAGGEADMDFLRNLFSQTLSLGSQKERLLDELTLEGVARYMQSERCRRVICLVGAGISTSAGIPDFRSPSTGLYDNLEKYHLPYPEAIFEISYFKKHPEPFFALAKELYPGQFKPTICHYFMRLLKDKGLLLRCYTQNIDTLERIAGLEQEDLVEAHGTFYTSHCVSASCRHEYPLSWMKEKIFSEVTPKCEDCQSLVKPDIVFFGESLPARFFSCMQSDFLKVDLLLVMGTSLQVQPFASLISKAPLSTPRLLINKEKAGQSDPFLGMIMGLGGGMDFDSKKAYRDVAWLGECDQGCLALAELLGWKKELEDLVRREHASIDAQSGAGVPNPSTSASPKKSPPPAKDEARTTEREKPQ

[1] = system: primary human CD34+ stem/progenitor cells; experiment: Growth and viability of primary CD34+ stem/progenitor cells; assay type: cell-based
Method: Figure 7 Only very high concentrations of eurochevalierine impair the growth of healthy primary human CD34^+ stem/progenitor cells. CD34^+ cells were incubated with the indicated concentrations of eurochevalierine and cell growth (a) and viability (b) were assessed after 72 h of treatment. Results correspond to the mean ± SD of three independent experiments with * and ** indicate p < 0.05 and p < 0.01 versus control.
Primary CD34^+ progenitor/stem cells were isolated from human umbilical cord blood obtained from the Clinique Bohler (Hôpitaux Robert Schuman, Luxembourg, Luxembourg) with the written informed consent of parents with the approval of the National Research Ethics Committee of Luxembourg. First, mononucleated cells were isolated by Ficoll™ (GE Healthcare, Roosendaal, The Netherlands) density gradient centrifugation. CD34^+ cells were then purified out from mononucleated cells using magnetic cell sorting following the manufacturer’s instructions (MACS Miltenyi, Utrecht, The Netherlands).
High purity CD34^+ cells were treated after 3 days of amplification in Stemline® II Hematopoietic Stem cell Expansion Medium (Sigma) supplemented with 1% antibiotic-antimycotic (BioWhittaker®, Lonza, Verviers, Belgium), 4 mM L-glutamine (BioWhittaker®), 50 ng/mL stem cell factor (ReliaTech, Wolfenbüttel, Germany), and 10 ng/mL interleukin 3 (Reliatech, Wolfenbüttel, Germany). Other cell models were cultured in RPMI1640 (BioWhittaker®) supplemented with 10% heat-inactivated fetal calf serum (BioWhittaker®) and 1% antibiotic-antimycotic. Cell lines were cultured at 37 °C in a humid atmosphere and at 5% CO2.
PBMCs and CD34^+ cells were processed through a semi-automated image-based cell analyzer (Cedex XS Innovatis, Roche, Luxembourg), which provides information about cell concentration and viability based on the Trypan Blue exclusion method.

HDAC2 = HDAC2 (Homo sapiens, UniProt Q92769); experiment: Selective in vitro HDAC activity assay, recombinant HDAC2; assay type: biochemical; conditions: 100 µM
Method: (§1) (a) In vitro total HDAC activity was evaluated using K-562 nuclear extracts in the presence of various concentrations of eurochevalierine. (b) Selective in vitro HDAC activity assays were carried out using selected recombinant HDAC proteins in the presence of various concentrations of eurochevalierine. Results are reported as percent of DMSO vehicle control and expressed as the mean ± SD of three independent experiments. * and ** indicate p < 0.05 and p < 0.01 versus untreated cells, respectively.

HDAC11 = molecular target: T2, HDAC11 (Homo sapiens, UniProt Q96DB2); experiment: Selective in vitro HDAC activity assay, recombinant HDAC11; assay type: biochemical
T2 sequence (Q96DB2 1-347): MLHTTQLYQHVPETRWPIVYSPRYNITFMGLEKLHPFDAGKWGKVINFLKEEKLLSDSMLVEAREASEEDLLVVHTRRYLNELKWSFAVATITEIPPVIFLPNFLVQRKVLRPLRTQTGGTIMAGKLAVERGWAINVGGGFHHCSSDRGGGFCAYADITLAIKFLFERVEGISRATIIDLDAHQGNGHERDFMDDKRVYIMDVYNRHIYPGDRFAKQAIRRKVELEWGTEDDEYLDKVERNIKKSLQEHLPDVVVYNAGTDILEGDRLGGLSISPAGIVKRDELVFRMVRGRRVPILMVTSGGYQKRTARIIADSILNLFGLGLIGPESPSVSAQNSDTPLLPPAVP
Method: as §1

[2] = system: panel of cancer cell lines; parameters: method as in PMID 22976482; conditions: read-out: mean IC50 for the growth inhibition of cancer cells; cited from earlier work
SIRT3 = molecular target: T3, SIRT3 (Homo sapiens, UniProt Q9NTG7); experiment: In vitro SIRT3 activity assay; assay type: biochemical
T3 sequence (Q9NTG7 1-399): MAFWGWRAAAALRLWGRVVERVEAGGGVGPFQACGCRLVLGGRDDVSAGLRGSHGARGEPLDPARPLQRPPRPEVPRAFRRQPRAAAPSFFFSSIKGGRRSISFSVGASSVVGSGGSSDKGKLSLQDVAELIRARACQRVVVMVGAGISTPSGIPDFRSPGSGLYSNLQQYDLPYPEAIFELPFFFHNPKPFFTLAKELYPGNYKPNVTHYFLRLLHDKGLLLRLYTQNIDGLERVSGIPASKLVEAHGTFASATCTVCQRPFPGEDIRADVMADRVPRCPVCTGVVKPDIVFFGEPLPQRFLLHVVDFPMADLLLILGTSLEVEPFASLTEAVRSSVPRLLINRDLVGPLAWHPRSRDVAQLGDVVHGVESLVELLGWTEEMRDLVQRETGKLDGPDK

HDAC2, sequence (Q92769 whole entry): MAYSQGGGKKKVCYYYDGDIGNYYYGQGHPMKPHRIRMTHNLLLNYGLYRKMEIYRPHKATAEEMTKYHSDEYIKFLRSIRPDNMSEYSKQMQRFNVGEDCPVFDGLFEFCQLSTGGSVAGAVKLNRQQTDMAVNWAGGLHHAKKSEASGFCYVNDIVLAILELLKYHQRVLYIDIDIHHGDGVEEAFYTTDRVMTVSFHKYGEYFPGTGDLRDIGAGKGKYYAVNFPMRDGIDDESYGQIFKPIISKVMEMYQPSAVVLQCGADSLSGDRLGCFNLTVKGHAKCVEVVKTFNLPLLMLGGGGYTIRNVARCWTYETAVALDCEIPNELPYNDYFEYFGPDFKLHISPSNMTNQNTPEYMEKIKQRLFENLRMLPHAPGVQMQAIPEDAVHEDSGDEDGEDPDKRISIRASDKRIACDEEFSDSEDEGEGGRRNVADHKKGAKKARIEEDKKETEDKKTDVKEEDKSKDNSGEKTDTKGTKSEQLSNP

Compound: C=C(C)[C@@H]1CC[C@@H](C)[C@@]2(O)[C@@H]1C=C(C)[C@@H](OC(C)=O)[C@@H]2OC(=O)[C@H](CC(=O)c1ccccc1NC)NC=O [Eurochevalierine, eurochevalierine]
- IC50 (SIRT2): 10 µM and ~10 µM and 10.2 µM
- impact on CD34+ cell viability ([1]; 200 µM, 72 h): minor impact on cell viability
- IC50 ([1]; Homo sapiens, 72 h, read-out: IC50 growth inhibition of CD34+ cells): > 200 µM
- inhibition at 200 µM ([1]; Homo sapiens, 200 µM, 72 h, read-out: maximum growth inhibition of CD34+ cells): ~30%
- selectivity factor cancer cells versus normal proliferating CD34+ cells ([1]; IC50 in healthy cells (>200 µM) versus mean IC50 in cancer cells (28 µM)): > 7
- effect on HDAC2 deacetylase activity (HDAC2): without effect
- inhibition at 100 µM (HDAC11): ~51%
- IC50 [2]: 28 µM
- remaining SIRT3 enzymatic activity compared to the control set to 100% (SIRT3; at 100 µM): 59%
- IC50 (SIRT3; mean ± SD of three independent experiments): > 100 µM
